These results are taken from PMC7266110 (Drug Design, Development and Therapy, 2020).

The target of the assay is T1, PPARγ (Homo sapiens, UniProt P37231).
T1 sequence (P37231 1-505): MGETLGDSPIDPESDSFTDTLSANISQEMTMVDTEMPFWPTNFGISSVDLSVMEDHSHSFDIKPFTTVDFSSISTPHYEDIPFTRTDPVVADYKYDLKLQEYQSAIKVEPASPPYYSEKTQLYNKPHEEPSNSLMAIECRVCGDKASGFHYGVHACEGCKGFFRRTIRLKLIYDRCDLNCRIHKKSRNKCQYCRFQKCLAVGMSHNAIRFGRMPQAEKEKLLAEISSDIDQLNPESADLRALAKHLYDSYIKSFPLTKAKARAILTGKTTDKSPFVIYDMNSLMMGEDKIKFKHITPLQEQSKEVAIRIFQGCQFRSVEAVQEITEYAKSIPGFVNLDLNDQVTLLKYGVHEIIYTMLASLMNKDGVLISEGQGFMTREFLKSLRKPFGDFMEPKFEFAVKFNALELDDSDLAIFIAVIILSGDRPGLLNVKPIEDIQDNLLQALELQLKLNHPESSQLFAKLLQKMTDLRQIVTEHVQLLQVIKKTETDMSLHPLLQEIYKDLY
In words: FP-based PPARγ ligand screening assay. The assay is classed as binding.

Turning to `O=C(/C=C/C=C/c1ccc2c(c1)OCO2)N1CCCCC1` [Piperine], inhibition was half-maximal at 18.4 µM (IC50).
